In article PMC12192500, “Selective Dual Inhibition of TNKS1 and CDK8 by TCS9725 Attenuates STAT1/β-Catenin/TGFβ1 Signaling in Renal Cancer” (Current Issues in Molecular Biology, 2025):

How the values were obtained:
[1] = molecular target: T1, TNKS1 (Tankyrase 1, PARP5A) (Homo sapiens, UniProt O95271); test: TNKS1 colorimetric PARP activity assay kit (BPS #[…]), histone-coated plate; type: biochemical
T1 construct: gene TNKS

[2] = molecular target: CDK8 (Cyclin-dependent kinase 8) (Homo sapiens, UniProt P49336); test: luminescence-based kinase assay; type: biochemical
CDK8 (Cyclin-dependent kinase 8), sequence (P49336 whole entry): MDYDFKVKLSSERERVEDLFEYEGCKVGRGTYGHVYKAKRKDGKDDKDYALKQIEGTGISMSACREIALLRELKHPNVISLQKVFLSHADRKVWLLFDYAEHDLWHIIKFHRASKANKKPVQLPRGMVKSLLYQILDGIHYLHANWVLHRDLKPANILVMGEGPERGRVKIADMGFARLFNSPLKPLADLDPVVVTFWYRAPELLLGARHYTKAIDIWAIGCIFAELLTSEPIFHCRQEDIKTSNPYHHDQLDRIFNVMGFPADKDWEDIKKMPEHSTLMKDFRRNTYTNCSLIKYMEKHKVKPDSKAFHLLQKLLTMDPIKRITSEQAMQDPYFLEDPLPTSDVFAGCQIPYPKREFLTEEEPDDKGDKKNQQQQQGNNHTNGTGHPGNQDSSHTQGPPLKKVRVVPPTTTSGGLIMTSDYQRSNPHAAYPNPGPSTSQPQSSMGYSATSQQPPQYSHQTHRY

T1 sequence (O95271 whole entry): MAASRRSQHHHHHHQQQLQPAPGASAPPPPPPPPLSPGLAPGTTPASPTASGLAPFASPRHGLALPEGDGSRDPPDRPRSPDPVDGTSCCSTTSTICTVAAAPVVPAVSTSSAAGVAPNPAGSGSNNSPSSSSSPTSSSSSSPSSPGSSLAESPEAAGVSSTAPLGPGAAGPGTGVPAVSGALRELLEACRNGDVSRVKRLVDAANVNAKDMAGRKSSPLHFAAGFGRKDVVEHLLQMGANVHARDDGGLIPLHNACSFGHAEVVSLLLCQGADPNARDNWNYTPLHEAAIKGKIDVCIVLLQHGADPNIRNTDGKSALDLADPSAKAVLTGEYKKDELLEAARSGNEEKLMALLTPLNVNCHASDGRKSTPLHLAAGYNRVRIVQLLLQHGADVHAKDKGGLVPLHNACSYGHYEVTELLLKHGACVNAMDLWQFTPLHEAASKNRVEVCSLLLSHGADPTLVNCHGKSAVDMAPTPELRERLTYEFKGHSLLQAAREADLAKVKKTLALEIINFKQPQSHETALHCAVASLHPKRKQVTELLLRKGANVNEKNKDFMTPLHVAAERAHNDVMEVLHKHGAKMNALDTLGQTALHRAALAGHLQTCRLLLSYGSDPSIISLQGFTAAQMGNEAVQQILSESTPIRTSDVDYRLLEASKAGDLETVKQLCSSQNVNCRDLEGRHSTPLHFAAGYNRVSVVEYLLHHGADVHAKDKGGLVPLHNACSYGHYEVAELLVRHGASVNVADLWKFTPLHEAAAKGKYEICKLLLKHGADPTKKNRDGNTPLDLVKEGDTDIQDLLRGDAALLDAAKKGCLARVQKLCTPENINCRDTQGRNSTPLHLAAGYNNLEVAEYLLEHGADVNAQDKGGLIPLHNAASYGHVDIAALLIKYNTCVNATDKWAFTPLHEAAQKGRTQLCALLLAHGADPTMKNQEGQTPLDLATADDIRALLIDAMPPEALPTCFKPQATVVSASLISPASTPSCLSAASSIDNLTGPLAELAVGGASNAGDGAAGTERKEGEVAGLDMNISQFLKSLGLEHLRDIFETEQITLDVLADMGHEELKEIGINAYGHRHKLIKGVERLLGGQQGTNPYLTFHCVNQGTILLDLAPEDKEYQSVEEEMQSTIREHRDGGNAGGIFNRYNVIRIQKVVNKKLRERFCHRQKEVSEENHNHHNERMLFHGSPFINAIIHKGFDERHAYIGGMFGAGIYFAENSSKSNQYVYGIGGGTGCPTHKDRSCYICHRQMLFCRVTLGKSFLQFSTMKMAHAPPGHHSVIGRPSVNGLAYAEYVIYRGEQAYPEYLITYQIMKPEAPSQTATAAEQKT

`O=c1cccc(-c2ccc(Cl)cc2)o1` [TCS9725, 6-(4-chlorophenyl)-2H-pyran-2-one] gave an IC50 [1] of 243 nM and an IC50 [2] of 404 nM.
